Reference: EP0388528B1, “Carboximidamide derivatives” (KIRIN BEER KABUSHIKI KAISHA, priority 1988, dated 1990)

Key:
isolated rat aortae = assay: Vasorelaxing effect on the isolated rat aortae (Referential Example 2)-1); conditions: inhibition of contraction induced by 40 mM KCl, read-out: IC₅₀ Value
Protocol: The compounds of the present invention were tested for their physiological activities by measuring the tension of isolated rat aortae isometrically.
Thoracic aortae obtained from male Wistar rats (weighing 250-350 g) were cut into ring segments about 3 mm long. The ring preparation was placed in an organ bath filled with 10 ml of Krebs-Ringer solution which was maintained at 37°C and gassed with 95% O₂ - 5% CO₂.
The preparation in the organ bath was allowed to equilibrate under resting tension 1 g. After equilibration period, the solution in the organ bath was replaced with an isotonic solution containing 40 mM KCl to contract the preparation.
After the contraction induced by KCl had reached plateau, the concentration-response relationship for the test compound was determined by means of cumulative addition.
The relaxation response of the test compounds was expressed as the percent inhibition of the contraction induced by KCl, and the IC₅₀ value, which is a concentration required for inhibiting the contraction induced by KCl to an extent of 50%, was calculated by the Probit method from the concentration-response curve.

[1] = test system: spontaneous hypertensive rats (SHR); assay: Hypotensive effect on spontaneous hypertensive rats (intravenously) (Referential Example 2)-2); assay type: in vivo; conditions: Rattus norvegicus, iv, anesthetized SHR, dose decreasing mean blood pressure by 20%; read-out: ED₂₀ (mg/kg, i.v.)
Protocol: Rats were anesthetized with urethane-α-chloralose (1 g/kg - 25 mg/kg; intraperitoneally). Mean blood pressure was measured by a pressure transducer through a cannula inserted into the carotid artery. The compound was cumulatively administered every 30 minutes through the cannula inserted into the jagular vein. The change in blood pressure was expressed as percent of the blood pressure before the administration of the compound. And the ED₂₀ value, which was the dose required for decreasing blood pressure to an extent of 20%, was calculated from the dose-response curve.

isolated rat heart = assay: Effect on isolated rat heart (Langendorff's method); conditions: 1 × 10⁻⁸ mol/min, mean ± S.D.
Protocol: The effect of the compound of the present invention on heart of rats was examined by using the Langendorff's method [test compound: N-cyano-N′-(2-nitroxyethyl)-3-pyridinecarboximidamide (compound (13))]. Hearts were excised from male rats (weighing 250-350 g) and perfused at 80 cmH₂O in a Langendorff fashion. Krebs-Hensaleit bicarbonate solution (pH 7.4, 37°C) containing an 11 mM glucose which was oxygenated with 95% O₂- 5% CO₂ gas mixture was used as a perfusate. The left ventricular pressure was recorded by inserting a latex baloon into the left ventricle, and heart rate was determined from the pulse of it. Coronary perfusate flow was also measured with an electromagnetic flowmeter. The experiments were carried out by perfusing a perfusate containing the compound (13) for 10 minutes after an initial equilibration period for 30 minutes. As the control compound, nicorandil which has an effect opening potassium channel and is similar to the test compound in structure was used. The changes in the coronary perfusate flow and the cardiac function (heart rate × left ventricular pressure) caused by these compounds were expressed as percent changes from the preperfusion values of the compound (13) or nicorandil.

beagles = assay: Hemodynamic profile in beagles (intravenously); assay type: in vivo; conditions: peak percent change from pretreatment
Protocol: Hemodynamic profile of the compound of the present invention was investigated in beagles anesthetized with pentobarbital (30 mg/kg, intravenously) [test compound: N-cyano-N′-(2-nitroxyethyl)-3-pyridinecarboximidamide (compound (13))]. The thorax was opened under artificial respiration. After administering heparin in an amount of 500 units/kg, a Moravitz's cannula was introduced into the coronary sinus via the right atrium. The coronary sinus outflow was returned to the right external jagular vein. The coronary sinus outflow was measured by an electromagnetic flowmeter (MFU-2100, manufactured by Nihon Kohden) connected to the Moravitz's cannula. A cannula was inserted into the aortic arch through the subclavian artery to measure aortic blood pressure. The aortic blood pressure was measured with a pressure transducer (Nihon Kohden, TP-200T). Heart rate was monitored with a heart rate counter with R waves of electrocardiogram. All parameters were recorded on a thermosensitive recorder (WT-685G, manufactured by Nihon Kohden).
The compound was administered through the cannula inserted into the right femoral vein. Nicorandil was used as a control. As for respective measurement items, peak changes were expressed as percent change from the pretreatment values of the compound (13) or nicorandil.

isolated heart of rats = assay: Myocardiac injury induced by re-perfusion after ischemia (isolated heart of rats); conditions: 1×10⁻⁶ mole/min, after 30 minutes re-perfusion, mean ± SD
Protocol: The cardiac muscle protecting effect of the compound of the present invention was tested by using the isolated heart of rats [test compound: N-cyano-N′-(2-nitroxyethyl)-3-pyridinecarboximidamide (compound (13))]. The Langendorff's method was used in the same manner as in the aforementioned Referential Example 1)-6. The isolated heart was perfused with a perfusate for 30 minutes and then with a perfusate containing the test compound for 10 minutes, and perfusion was stopped so that the heart was in the so-called "ischemic state". Pacing was performed during the ischemia. […] Parameters of cardiac function after the onset of re-perfusion was monitored for 30 minutes, and the heart was quickly freezed. The amount of ATP in the heart muscle was extracted with perchloric acid and determined by HPLC. Nicorandil was used as a control.
The recovery rate of the cardiac function (heart rate × left ventricular pressure) after onset of reperfusion was calculated based on the cardiac function prior to the perfusion of the compound (13) and nicorandil as 100%. The amount of ATP in the heart muscle was also determined.

Row | IC50 (isolated rat aortae) [µM] | Structure (SMILES) | ED20 [1] [mg/kg] | Coronary Perfusate Flow (% change) (isolated rat heart; perfusion 10 minutes) | Cardiac Function (isolated rat heart; heart rate × left ventricular pressure, percent change from preperfusion) [%] | Coronary Blood Flow (beagles; i.v. 100.0 µg/kg) [%] | Heart Rate (beagles; i.v. 100.0 µg/kg) [%] | Mean Aortic Blood Pressure (beagles; i.v. 100.0 µg/kg) [%] | Coronary Blood Flow (beagles; i.v. 300.0 µg/kg) [%] | Heart Rate (beagles; i.v. 300.0 µg/kg) [%] | Mean Aortic Blood Pressure (beagles; i.v. 300.0 µg/kg) [%] | Amount of ATP in the heart muscle (µmole/g of dry weight) (isolated heart of rats)
1 | 26 | N#CNC(=NCCO[N+](=O)[O-])c1ccco1 [(62), N-cyano-N′-(2-nitroxyethyl)-2-furancarboximidamide] | 0.025 |  |  |  |  |  |  |  |  | 
2 | 9.6 | N#CNC(=NCCO[N+](=O)[O-])c1cccs1 [(66), N-cyano-N′-(2-nitroxyethyl)-2-thiophenecarboximidamide] | 0.115 |  |  |  |  |  |  |  |  | 
3 |  | O=C(NCCO[N+](=O)[O-])c1cccnc1 [Nicorandil, nicorandil, reference compound] |  | 3.3±5.6 | 3.7±6.7 | 20.3±5.1 | 0.2±2.1 | -21.3±1.9 | 84.9±10.8 | -20.7±1.9 | -43.1±5.4 | 5.93±0.49 (4) µmole/g of dry weight
